# From US9079878B2, “(4-phenylimidazol-2-yl) ethylamine derivatives useful as sodium channel modulators” (Pfizer Limited, priority 2011, dated 2015)
# Biological target: T1, hNav1.8 (Homo sapiens, UniProt Q9Y5Y9)
# T1 construct: host or cells: HEK cells, stably transfected
# Assay: hNav1.8 whole-cell patch-clamp electrophysiology in HEK cells (conventional or PatchXpress 7000)
# Format: cell-based
# Settings: estimated IC50 calculated from single point % inhibition; HEK cells stably transfected with hNav1.8; 20 msec step to 0 mV after 8 second prepulse to V1/2; average of replicates; read-out: NaV1.8 EIC50
# Text: The ability of the imidazole derivatives of the formula (I) to inhibit the NaV1.8 channel may be measured using the assay described below.
# HEK cells stably transfected with hNav1.8, purchased from Millipore (Millipore Corp., Billerica, Mass. 01821), were maintained according to manufacturer's instructions. For electrophysiological studies, cells were removed from the culture flask by brief trypsinization and re-plated at low density onto glass cover slips. Cells were typically used for electrophysiological experiments within 24 to 72 h after plating.
# Cover slips containing HEK cells expressing hNav1.8 were placed in a bath on the stage of an inverted microscope and perfused (approximately 1 mL/min) with extracellular solution of the following composition: 138 mM NaCl, 2 mM CaCl2, 5.4 mM KCl, 1 mM MgCl2, 10 mM glucose, and 10 mM HEPES, pH 7.4, with NaOH. […] The osmolarity of the extracellular and intracellular solutions was 300 mOsm/kg and 295 mOsm/kg, respectively. All recordings were made at room temperature (22-24° C.) using AXOPATCH 200B amplifiers and PCLAMP software (Axon Instruments, Burlingame, Calif.).
# hNav1.8 currents in HEK cells were measured using the whole-cell configuration of the patch-clamp technique (Hamill et al., 1981). Uncompensated series resistance was typically 2 to 5 mega ohms and >85% series resistance compensation was routinely achieved. […] Current records were acquired at 20 to 50 KHz and filtered at 5 to 10 KHz.
# HEK cells stably transfected with hNav1.8 were viewed under Hoffman contrast optics and placed in front of an array of flow pipes emitting either control or compound-containing extracellular solutions. All compounds were dissolved in dimethyl sulfoxide to make 10 mM stock solutions, which were then diluted into extracellular solution to attain the final concentrations desired.
# The voltage-dependence of inactivation was determined by applying a series of depolarizing prepulses (8 sec long in 10 mV increments) from a negative holding potential. The voltage was then immediately stepped to 0 mV to assess the magnitude of the sodium current. Currents elicited at 0 mV were plotted as a function of prepulse potential to allow estimation of the voltage at which 50% of the channels were inactivated (midpoint of inactivation or V1/2). Compounds were tested for their ability to inhibit hNav1.8 sodium channels by activating the channel with a 20 msec voltage step to 0 mV following an 8 second conditioning prepulse to the empirically determined V1/2. Compound effect (% inhibition) was determined by difference in current amplitude before and after application of test compounds. For ease of comparison, “estimated IC-50” values were calculated from single point electrophysiology data by the following equation, (tested concentration, uM)×(100−% inhibition/% inhibition). Inhibition values <20% and >80% were excluded from the calculation.
# In some cases electrophysiological assays were conducted with PatchXpress 7000 hardware and associated software (Molecular Devices Corp). All assay buffers and solutions were identical to those used in conventional whole-cell voltage clamp experiments described above. hNav1.8 cells were grown as above to 50%-80% confluency and harvested by trypsinization. Trypsinized cells were washed and resuspended in extracellular buffer at a concentration of 1×10^6 cells/mL. The onboard liquid handling facility of the PatchXpress was used for dispensing cells and application of test compounds. Determination of the voltage midpoint of inactivation was as described for conventional whole-cell recordings. Cells were then voltage-clamped to the empirically determined V1/2 and current was activated by a 20 msec voltage step to 0 mV.
# T1 sequence (Q9Y5Y9 whole entry): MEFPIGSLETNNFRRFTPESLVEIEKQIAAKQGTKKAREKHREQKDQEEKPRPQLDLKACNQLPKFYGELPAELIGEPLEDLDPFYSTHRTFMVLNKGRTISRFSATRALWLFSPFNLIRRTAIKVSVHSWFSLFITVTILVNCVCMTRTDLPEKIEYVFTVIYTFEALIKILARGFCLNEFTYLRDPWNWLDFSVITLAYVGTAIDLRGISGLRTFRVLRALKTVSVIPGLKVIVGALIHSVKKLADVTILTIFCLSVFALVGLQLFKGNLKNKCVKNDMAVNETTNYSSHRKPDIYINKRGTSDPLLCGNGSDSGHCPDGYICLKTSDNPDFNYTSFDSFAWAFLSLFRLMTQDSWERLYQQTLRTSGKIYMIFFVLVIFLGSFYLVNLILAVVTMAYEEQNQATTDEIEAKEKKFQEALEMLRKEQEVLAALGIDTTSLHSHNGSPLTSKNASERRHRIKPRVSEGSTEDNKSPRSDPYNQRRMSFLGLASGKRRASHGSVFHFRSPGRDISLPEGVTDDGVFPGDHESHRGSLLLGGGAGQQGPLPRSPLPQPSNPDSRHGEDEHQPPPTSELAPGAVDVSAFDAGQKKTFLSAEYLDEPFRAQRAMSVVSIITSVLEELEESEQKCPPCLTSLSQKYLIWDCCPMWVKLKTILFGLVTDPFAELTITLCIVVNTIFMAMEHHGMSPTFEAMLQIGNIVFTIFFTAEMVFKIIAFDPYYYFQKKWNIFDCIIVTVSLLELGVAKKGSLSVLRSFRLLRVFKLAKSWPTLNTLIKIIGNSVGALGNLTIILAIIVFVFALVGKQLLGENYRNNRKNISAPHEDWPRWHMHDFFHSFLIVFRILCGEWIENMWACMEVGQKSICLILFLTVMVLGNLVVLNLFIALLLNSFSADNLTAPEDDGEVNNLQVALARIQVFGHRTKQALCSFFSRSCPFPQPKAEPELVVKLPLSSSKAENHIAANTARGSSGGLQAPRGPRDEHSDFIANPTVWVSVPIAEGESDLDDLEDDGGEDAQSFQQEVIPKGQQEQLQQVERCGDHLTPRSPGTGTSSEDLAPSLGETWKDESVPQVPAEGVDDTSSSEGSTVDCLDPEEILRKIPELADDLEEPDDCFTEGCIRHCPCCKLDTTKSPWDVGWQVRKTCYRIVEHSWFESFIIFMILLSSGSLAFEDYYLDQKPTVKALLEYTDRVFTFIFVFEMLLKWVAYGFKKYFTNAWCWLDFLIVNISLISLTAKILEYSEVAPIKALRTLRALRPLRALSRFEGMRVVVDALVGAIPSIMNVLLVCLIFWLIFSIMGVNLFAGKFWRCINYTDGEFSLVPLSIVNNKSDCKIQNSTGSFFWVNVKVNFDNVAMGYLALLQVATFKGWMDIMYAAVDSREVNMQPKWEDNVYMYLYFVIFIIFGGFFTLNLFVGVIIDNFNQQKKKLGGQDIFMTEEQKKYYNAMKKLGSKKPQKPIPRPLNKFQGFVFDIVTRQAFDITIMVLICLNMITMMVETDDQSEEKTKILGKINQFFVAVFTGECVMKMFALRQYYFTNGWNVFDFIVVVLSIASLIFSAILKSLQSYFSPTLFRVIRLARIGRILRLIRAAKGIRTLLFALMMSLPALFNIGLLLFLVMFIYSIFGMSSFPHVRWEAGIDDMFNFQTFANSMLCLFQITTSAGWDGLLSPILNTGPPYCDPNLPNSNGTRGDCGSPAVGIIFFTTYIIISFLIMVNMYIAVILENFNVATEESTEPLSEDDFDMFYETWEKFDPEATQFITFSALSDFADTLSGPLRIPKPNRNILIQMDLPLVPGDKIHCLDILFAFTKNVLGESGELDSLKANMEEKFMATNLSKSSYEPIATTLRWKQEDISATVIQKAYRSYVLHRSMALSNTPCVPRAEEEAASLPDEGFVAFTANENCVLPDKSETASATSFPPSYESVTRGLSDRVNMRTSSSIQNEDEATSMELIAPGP
row,IC50 [nM],Structure (SMILES)
1,9.7,"CC(c1nc(-c2ccc(C(F)(F)F)cc2)c[nH]1)C1(N)COC1 (racemic) [Example 12, 3-(1-{4-[4-(Trifluoromethyl)phenyl]-1H-imidazol-2-yl}ethyl)oxetan-3-amine]"
2,11,"CCC(c1nc(-c2ccc(OC(F)(F)F)cc2)c[nH]1)C1(N)COC1 (racemic) [Example 15, 3-(1-{4-[4-(Trifluoromethoxy)phenyl]-1H-imidazol-2-yl}propyl)oxetan-3-amine]"
3,3.3,"C[C@H](c1nc(-c2ccc(OC(F)(F)F)cc2)c[nH]1)C1(N)COC1 (single isomer, unassigned) [Example 10]"
4,9,"C[C@@H](c1nc(-c2ccc(OC(F)(F)F)cc2)c[nH]1)C1(N)COC1 (single isomer, unassigned) [Example 11]"
5,7.8,"C[C@H](c1nc(-c2ccc(C(F)(F)F)cc2)c[nH]1)C1(N)COC1 (single isomer, unassigned) [Example 13]"
6,51,"C[C@@H](c1nc(-c2ccc(C(F)(F)F)cc2)c[nH]1)C1(N)COC1 (single isomer, unassigned) [Example 14]"
7,32,"CC[C@H](c1nc(-c2ccc(OC(F)(F)F)cc2)c[nH]1)C1(N)COC1 (single isomer, unassigned) [Example 16]"
8,75,"CC[C@@H](c1nc(-c2ccc(OC(F)(F)F)cc2)c[nH]1)C1(N)COC1 (single isomer, unassigned) [Example 17]"

# Continued, compound first:
row,Structure (SMILES),IC50 [nM]
1,"CC(c1nc(-c2ccc(OC(F)(F)F)cc2)c[nH]1)C1(N)COC1 (racemic) [Example 9, 3-(1-{4-[4-(Trifluoromethoxy)phenyl]-1H-imidazol-2-yl}ethyl)oxetan-3-amine]",26
2,"NC1(Cc2nc(-c3ccc(OC(F)(F)F)cc3)c[nH]2)CCCOC1 (stereo not shown) [Example 1, 3-({4-[4-(Trifluoromethoxy)phenyl]-1H-imidazol-2-yl}methyl)tetrahydro-2H-pyran-3-amine]",190
3,"Cc1cc(-c2c[nH]c(CC3(N)COC3)n2)ccc1Cl [Example 2, 3-{[4-(4-Chloro-3-methylphenyl)-1H-imidazol-2-yl]methyl}oxetan-3-amine]",360
4,"NC1(Cc2nc(-c3ccc(OC(F)(F)F)cc3)c[nH]2)CCOC1 (stereo not shown) [Example 3, 3-({4-[4-(Trifluoromethoxy)phenyl]-1H-imidazol-2-yl}methyl)tetrahydrofuran-3-amine]",260
5,"NC1(Cc2nc(-c3ccc(C(F)(F)F)cc3)c[nH]2)COC1 [Example 4, 3-({4-[4-(Trifluoromethyl)phenyl]-1H-imidazol-2-yl}methyl)oxetan-3-amine]",360
6,"NC1(Cc2nc(-c3ccc(OC(F)F)cc3)c[nH]2)COC1 [Example 5, 3-({4-[4-(Difluoromethoxy)phenyl]-1H-imidazol-2-yl}methyl)oxetan-3-amine]",480
7,"NC1(Cc2nc(-c3ccc(S(F)(F)(F)(F)F)cc3)c[nH]2)COC1 [Example 6, 3-({4-[4-(Pentafluoro-λ^6-sulfanyl)phenyl]-1H-imidazol-2-yl}methyl)oxetan-3-amine]",920
8,"NC1(Cc2nc(-c3ccc(OC(F)(F)F)cc3)c[nH]2)CCOCC1 [Example 7, 4-({4-[4-(Trifluoromethoxy)phenyl]-1H-imidazol-2-yl}methyl)tetrahydro-2H-pyran-4-amine]",400
